# Assay results reported in patent US20060276477A1, “Treatment method for anemia” (FibroGen, Inc., priority 2005, published 2006).
# Legend:
# Assay type in all cases: in vivo
# hemoglobin [1] = assay: Hemoglobin levels in mice on day 8 after oral gavage on day 1, 3 and 5; settings: for Hemoglobin 2 mg/kg cmpd: 2 mg/kg oral gavage on day 1, 3 and 5, measured day 8; for Hemoglobin 6 mg/kg cmpd: 6 mg/kg oral gavage on day 1, 3 and 5, measured day 8; for Hemoglobin 20 mg/kg cmpd: 20 mg/kg oral gavage on day 1, 3 and 5, measured day 8; for Hemoglobin 60 mg/kg cmpd: 60 mg/kg oral gavage on day 1, 3 and 5, measured day 8
# Protocol: (§1) Mice were administered various doses (2 mg/kg, 6 mg/kg, 20 mg/kg, 60 mg/kg) of compounds of the present invention by oral gavage or by intravenous injection. Circulating levels of EPO were determined […] hours after single-dose administration of compound. Hemoglobin levels were measured in mice on day 8 following administration of compound by oral gavage on day 1, day 3, and day 5.
# circulating EPO [2] = assay: Circulating EPO levels in mice after single intravenous or oral gavage dose; settings: 6 hours after administration; for EPO Intravenous: single intravenous dose (dose of the table not stated; 2-60 mg/kg tested); for EPO Oral Gavage: single oral gavage dose (dose of the table not stated; 2-60 mg/kg tested)
# Protocol: as §1
# [3] = Circulating EPO (Cmax, AUC) after i.v. or s.c. administration of rhEPO to human subjects; settings: assumes basal endogenous EPO of ~10 mIU/ml
# Excerpt: (§2) Increases in circulating EPO levels following administration of compound A or of rhEPO were compared. Table 3 and Table 2 below show Cmax EPO and EPO Area Under the Curve (AUC) values following intravenous (i.v.) or subcutaneous (s.c.) administration of various doses of rhEPO to human subjects, respectively. […] (See Table 1 below.)
# circulating EPO [4] = assay: Peak circulating (serum) EPO levels in normal monkeys after a single dose; settings: 8-12 hours after administration
# circulating EPO [5] = assay: Circulating EPO levels in mice after oral gavage of compound A
# Protocol: Mice were administered various doses (0, 20, 30, 60 mg/kg) of compound A by oral gavage. Circulating levels of EPO were determined 6 hours after compound administration. […] Administration of 20 mg/kg of compound A increased circulating levels of EPO approximately two-fold.
# serum EPO = assay: Serum EPO levels in healthy human subjects after compound administration; parameters: EPO AUC (0-24 hours): unit not given beside the values
# Protocol: […] At the indicated times (hours) after compound administration, serum EPO levels were determined.
# as §2
# hematocrit = assay: Hematocrit in rats after intermittent dosing for 4 weeks
# Protocol: Male (diamonds in FIG. 2) and female (triangles in FIG. 2) rats were administered various doses (20, 60, 150, 200, 300 mg/kg) of compound A two times per week (e.g., intermittent dosing) for 4 weeks. Hematocrit was determined on day 32.
# hemoglobin [6] = assay: Hemoglobin levels in anemic pre-dialysis human subjects with chronic kidney disease; settings: for Mean change from Baseline Hb Day 42 (or last value carried forward): oral three-times per week for 4 weeks
# Protocol: The effects of compound of the present invention on erythropoiesis in anemic pre-dialysis subjects with advanced stage chronic kidney disease were determined. Study subjects had chronic kidney disease and anemia, having GFR<30 ml/min and Hb<10g/dL. Two anemic pre-dialysis subject populations with chronic kidney disease (CKD) were studied: (1) subjects with no previous exposure to rhEPO (i.e., rhEPO-naive) and (2) subjects who had been receiving continuous rhEPO therapy for at least 8 weeks. In rhEPO-treated subjects, rhEPO administration was discontinued 5-14 days prior to initiation of treatment with compound of the present invention Subjects were orally administered compound A three-times per week for 4 weeks. Erythropoiesis was measured by changes in hemoglobin levels and serum EPO concentrations.
# circulating EPO [7] = assay: Circulating EPO levels in bilateral nephrectomized and sham-operated mice
# Protocol: Mice underwent bilateral nephrectomy (BN) surgery (or were sham-operated). Two hours after BN surgery, mice were administered a single oral dose (30 mg/kg) of compound A. Circulating EPO levels were measured 6 hours after compound administration. […] The kidneys produce the majority of endogenous EPO.
compound,measurement,setting,value
"Cc1nc(C(=O)NCC(=O)O)c(O)c2cccc(Oc3ccccc3)c12 [Compound E, [(4-Hydroxy-1-methyl-8-phenoxy-isoquinoline-3-carbonyl)-amino]-acetic acid]",Hemoglobin 2 mg/kg cmpd,hemoglobin [1],12.23 g/dL
same,Hemoglobin 6 mg/kg cmpd,hemoglobin [1],13.29 g/dL
same,Hemoglobin 20 mg/kg cmpd,hemoglobin [1],13.41 g/dL
same,Hemoglobin 60 mg/kg cmpd,hemoglobin [1],15.9 g/dL
same,EPO Intravenous,circulating EPO [2],2976 mIU/ml
same,EPO Oral Gavage,circulating EPO [2],744 mIU/ml
"COc1ccc(Oc2ccc3c(O)c(C(=O)NCC(=O)O)ncc3c2)cc1 [Compound C, {[4-Hydroxy-7-(4-methoxy-phenoxy)-isoquinoline-3-carbonyl]-amino}-acetic acid]",Hemoglobin 6 mg/kg cmpd,hemoglobin [1],13.68 g/dL
same,Hemoglobin 20 mg/kg cmpd,hemoglobin [1],14.29 g/dL
same,Hemoglobin 60 mg/kg cmpd,hemoglobin [1],14.94 g/dL
same,EPO Intravenous,circulating EPO [2],1663 mIU/ml
"N#Cc1nc(C(=O)NCC(=O)O)c(O)c2sccc12 [Compound H, [(4-cyano-7-hydroxy-thieno[3,2-c]pyridine-6-carbonyl)-amino]-acetic acid]",Hemoglobin 2 mg/kg cmpd,hemoglobin [1],12.67 g/dL
same,Hemoglobin 6 mg/kg cmpd,hemoglobin [1],13.65 g/dL
same,Hemoglobin 20 mg/kg cmpd,hemoglobin [1],13.53 g/dL
same,Hemoglobin 60 mg/kg cmpd,hemoglobin [1],14.2 g/dL
same,EPO Intravenous,circulating EPO [2],1242 mIU/ml
same,EPO Oral Gavage,circulating EPO [2],608 mIU/ml
"Cc1nc(C(=O)NCC(=O)O)c(O)c2ccc(Cl)cc12 [Compound F, [(7-Chloro-4-hydroxy-1-methyl-isoquinoline-3-carbonyl)-amino]-acetic acid]",Hemoglobin 6 mg/kg cmpd,hemoglobin [1],13.66 g/dL
same,Hemoglobin 20 mg/kg cmpd,hemoglobin [1],14.15 g/dL
same,Hemoglobin 60 mg/kg cmpd,hemoglobin [1],17.74 g/dL
same,EPO Intravenous,circulating EPO [2],3967 mIU/ml
"Cc1nc(C(=O)NCC(=O)O)c(O)c2cccc(Oc3ccc(F)cc3)c12 [Compound G, {[8-(4-Fluoro-phenoxy)-4-hydroxy-1-methyl-isoquinoline-3-carbonyl]-amino}-acetic acid]",Hemoglobin 2 mg/kg cmpd,hemoglobin [1],14.39 g/dL
same,Hemoglobin 6 mg/kg cmpd,hemoglobin [1],13.13 g/dL
same,Hemoglobin 20 mg/kg cmpd,hemoglobin [1],14.85 g/dL
same,Hemoglobin 60 mg/kg cmpd,hemoglobin [1],17.7 g/dL
same,EPO Intravenous,circulating EPO [2],10969 mIU/ml
same,EPO Oral Gavage,circulating EPO [2],2546 mIU/ml
"O=C(O)CNC(=O)c1ncc2c(Oc3ccccc3)cccc2c1O [Compound D, [(4-Hydroxy-8-phenoxy-isoquinoline-3-carbonyl)-amino]-acetic acid]",Hemoglobin 2 mg/kg cmpd,hemoglobin [1],14.1 g/dL
same,Hemoglobin 6 mg/kg cmpd,hemoglobin [1],13.98 g/dL
same,Hemoglobin 20 mg/kg cmpd,hemoglobin [1],14.55q g/dL
same,EPO Intravenous,circulating EPO [2],5473 mIU/ml
same,EPO Oral Gavage,circulating EPO [2],1201 mIU/ml
"rhEPO: recombinant human erythropoietin (rhEPO), an erythropoiesis stimulating protein; current therapy for anemia",Cmax EPO,[3]; rhEPO 10 U/kg i.v.,181 mIU/ml
same,Cmax EPO,[3]; rhEPO 50 U/kg i.v.,"1,430 mIU/ml"
same,Cmax EPO,[3]; rhEPO 150 U/kg i.v.,"4,438 mIU/ml"
same,Cmax EPO,[3]; rhEPO 300 U/kg s.c.,429 mIU/ml
same,Cmax EPO,[3]; rhEPO 450 U/kg s.c.,"1,263 mIU/ml"
same,Cmax EPO,[3]; rhEPO 500 U/kg i.v.,"16,257 mIU/ml"
same,Cmax EPO,[3]; rhEPO 600 U/kg s.c.,"1,263 mIU/ml"
"Cc1nc(C(=O)NCC(=O)O)c(O)c2ccc(Oc3ccccc3)cc12 [Compound B, [(4-Hydroxy-1-methyl-7-phenoxy-isoquinoline-3-carbonyl)-amino]-acetic acid]",Peak EPO,"circulating EPO [4]; single dose 3 mg/kg, pre-dose 4.2",13.1
same,Peak EPO,"circulating EPO [4]; single dose 30 mg/kg, pre-dose 0",1534.0
same,Peak EPO,"circulating EPO [4]; single dose 60 mg/kg, pre-dose 1.2",2739.8
"O=C(O)CNC(=O)c1nc(Cl)c2ccccc2c1O [Compound A, [(1-Chloro-4-hydroxy-isoquinoline-3-carbonyl)-amino]-acetic acid]",circulating levels of EPO,"circulating EPO [5]; oral gavage 0, 20, 30, 60 mg/kg, 6 hours after administration (FIG. 1)",increased EPO levels in mice in a dose-dependent manner
same,increase of circulating levels of EPO,"circulating EPO [5]; oral gavage 20 mg/kg, 6 hours after administration",approximately two-fold
same,serum EPO levels,"serum EPO; healthy human subjects, 3, 6, 10, 15, 20 mg/kg oral (FIG. 3)",increased serum EPO levels in a dose-dependent manner
same,EPO AUC (0-24 hours),"serum EPO; human subjects, PHI dose 6 mg/kg",203.5
same,EPO AUC (0-24 hours),"serum EPO; human subjects, PHI dose 10 mg/kg",331
same,EPO AUC (0-24 hours),"serum EPO; human subjects, PHI dose 20 mg/kg",365.5
same,EPO AUC (0-24 hours),"serum EPO; human subjects, PHI dose 30 mg/kg",508
same,circulating EPO levels compared with rhEPO administration,"serum EPO; human subjects, therapeutically effective doses of compound A versus rhEPO",substantially lower circulating EPO levels
same,Hemoglobin 6 mg/kg cmpd,hemoglobin [1],12.86 g/dL
same,Hemoglobin 20 mg/kg cmpd,hemoglobin [1],12.92 g/dL
same,Hemoglobin 60 mg/kg cmpd,hemoglobin [1],13.47 g/dL
same,hematocrit,"hematocrit; male and female rats, 20, 60, 150, 200, 300 mg/kg two times per week for 4 weeks, day 32 (FIG. 2)",increased hematocrit in rats in a dose-dependent manner
same,"erythropoiesis, as determined by hematocrit","hematocrit; rats, 20 mg/kg two times per week for 4 weeks, day 32",clinically-significant increase in erythropoiesis
same,decrease from mean Hb baseline levels,"hemoglobin [6]; CKD subjects after cessation of rhEPO therapy, placebo 1.5 g/dL decrease",0.9 g/dL
same,Mean change from Baseline Hb Day 42 (or last value carried forward),"hemoglobin [6]; CKD subjects previously on rhEPO (discontinued 5-14 days before), mean baseline Hb 11.7 g/dL, placebo −1.5",-0.9 g/dL
same,hemoglobin levels versus placebo,"hemoglobin [6]; rhEPO-naive CKD subjects, oral three-times per week for 4 weeks (FIG. 5)",hemoglobin levels were higher
same,Mean change from Baseline Hb Day 42 (or last value carried forward),"hemoglobin [6]; rhEPO-naive CKD subjects, mean baseline Hb 9.6 g/dL, placebo −0.35, p = 0.036",1.9 g/dL
same,circulating EPO levels,"circulating EPO [7]; bilateral nephrectomized (BN) mice, single oral dose 30 mg/kg two hours after surgery, 6 hours after administration (FIG. 4B)",significant increase in EPO levels
same,circulating EPO levels,"circulating EPO [7]; sham-operated mice, single oral dose 30 mg/kg, 6 hours after administration (FIG. 4A)",an increase in circulating levels of EPO
same,Peak EPO,"circulating EPO [4]; single dose 13 mg/kg, pre-dose 2.1",3.6
same,Peak EPO,"circulating EPO [4]; single dose 30 mg/kg, pre-dose 0.6",2.9
same,Peak EPO,"circulating EPO [4]; single dose 40 mg/kg, pre-dose 0.8",32.3
same,Peak EPO,"circulating EPO [4]; single dose 50 mg/kg, pre-dose 0",21.4
same,Peak EPO,"circulating EPO [4]; single dose 60 mg/kg, pre-dose 0",1194.2
same,EPO Intravenous,circulating EPO [2],1309 mIU/ml
